Measured values published in ChEMBL document CHEMBL3507680, “University of Dundee, Gates Library screen for HepG2 cell viability”.

test: Human HepG2 cell viability assay in 384 well format; assay type: toxicity, cell-based; design: dose 125 nL, time 70.5 hour; concentration not given beside the values; conditions: HepG2 cells, read-out: Inhibition

Structure (SMILES)	cytotoxicity at 70.5 h [%]
Cc1ccoc1C(=O)N1C[C@@H](OCC2CCOCC2)[C@H]2OCCC[C@H]21	8.35
Cc1cc(C)n(-c2ccc(CNCc3ccc(F)cc3F)cn2)n1	-11.6
CCS(=O)(=O)Nc1cnn(Cc2cccc(Cl)c2)c1	-10.7
CC(=O)N1CCCC(C(=O)NCCc2ccc(F)c(Br)c2)C1 (stereo unspecified)	-9.08
COCCCNc1nc(CNC(=O)C2CCC2)cc(-c2ccco2)n1	-5.78
CNC(=O)C1Cn2ccnc2C2(CCN(Cc3cccnc3)CC2)O1 (stereo unspecified)	2.48
CCN1CCC(CNC(=O)Nc2cc(C)on2)C1 (stereo unspecified)	-4.44
CNC(=O)c1[nH]nc2ccc(I)cc12	-3.31
COC[C@@]12CCC[C@@H]1CN(C(=O)CN(C)C)C2	-6.84
Cc1ccc(C)c(S(=O)(=O)NC(=O)c2ccc(C)[nH]c2=O)c1	-4.64
CN1CCC(C(=O)NCCC2CN(c3cnn(C)c(=O)c3)CCO2)CC1 (stereo unspecified)	-7.81
O=C(c1ccncc1)N1CCC2(CC1)CC(Oc1cccnc1)CO2 (stereo unspecified)	-14.5
Cc1ccc(C(=O)NCC2(O)CCOCC2)cc1F	-1.08
CCN(Cc1ccoc1)C(=O)C1CCN(C(=O)OC(C)(C)C)C1 (stereo unspecified)	18.9
Cc1c(COC(C)C)cccc1NC(=O)N1CC[C@H](O)C1	-6.27
CC(C)NC(=O)c1nn(C)c(NC(=O)Cc2ccccc2)c1F	-11.4
O=C(c1cncc(N2CCCC3(CCNCC3)CC2)n1)N1CCCCC1	8.06
CCS(=O)(=O)CCSc1ccc(Br)cc1	-6.15
C[C@@H](NC(=O)c1cccn1C)c1c(-c2ccc(Cl)cc2)noc1C(=O)O	-7.66

Structure (SMILES)	cytotoxicity at 70.5 h [%]
CC(C)c1noc(C2CCCN2S(=O)(=O)Cc2ccc(F)cc2)n1 (stereo unspecified)	0.0647
CS(=O)(=O)N1CCc2ccc(=O)n(CC3CCOCC3)c2CC1	-7.42
CCC(CNC(=O)c1ccco1)N1CCc2ccccc2C1 (stereo unspecified)	-12.8
O=C(Nc1cccnc1)[C@H]1CO[C@H]2CCNC[C@H]2C1	0.847
Fc1ccc(Cn2ncc3c2CN(c2noc(C4CC4)n2)C3)cc1	-3.43
CC(=O)N1CCc2c(nc(N(C)C)nc2NCc2cccs2)C1	-4.81
Cc1cc2cc(C(=O)N3CCN(CCO)[C@@H]4CS(=O)(=O)C[C@@H]43)ccc2o1	19.6
CN1[C@@H](CCC(=O)NCc2ccc(F)cc2)CNC(=O)[C@H]2NCC[C@H]21	-2.11
CS(=O)(=O)c1ccc2c(c1)nc1n2[C@@H](CNCc2cccnc2)COC1	-6.64
CCCc1noc(CN(C)Cc2ccc3c(c2)OCO3)n1	17.8
COc1ccc(CCN)cc1-c1ccc(O)cc1	-13.9
CC(C)NC(=O)N1CC[C@@H]2CN(Cc3ccccc3)S(=O)(=O)[C@@H]2CC1	18.6
Cc1ccc2c(c1)Oc1ncccc1C(=O)N2	-0.446
CN(CCc1ccccc1)c1cnn(CC(=O)N2CCOCC2)c(=O)c1	-7.73
CCN(C(=O)c1cnc(-c2ccc3c(c2)OCO3)s1)C1CC1	12.4
CCN1CCN(C(=O)C(C)N2CCc3cncnc3C2)CC1 (stereo unspecified)	-4.42
NCC1[C@H]2CN(Cc3cccc(Cl)c3)C[C@@H]12 (stereo partly specified)	-5.77
CCNc1nc(C)c(C(=O)N(C)Cc2nc(CC)no2)s1	-34.8
Cn1cc(Br)cc(NC(=O)CC(C)(C)C)c1=O	-13.2

Structure (SMILES)	cytotoxicity at 70.5 h [%]
Cc1ccc2c(c1)nc1n2[C@@H](CNC(=O)c2cncnc2)COC1	-2.41
COCCN(Cc1ccoc1)C(=O)c1ccccc1OC	-1.89
Cc1cccnc1CN1CCC2(CC(Nc3ccncn3)C2)C1 (stereo unspecified)	1.25
O=C(CSCC1CC1)N1C[C@@H]2CC[C@H](C1)N(Cc1ccccn1)C2=O	-8.12
Cc1ccc2oc(=O)n(CCC(=O)N3CCN(C)C(=O)C3)c2c1	-3.44
CC(=O)N1CCCN(C(=O)NCc2ccc(Cl)s2)CC1	-3.07
Cn1c(CN2CCCC(N3CCNC3=O)C2)cc(=O)n(C)c1=O (stereo unspecified)	26.4
Cc1cccc(CNCc2ccc(NC(=O)NC(C)C)cc2)c1	2.57
CN(C)C(=O)CCC1CCCN(Cc2cccc(-c3ccccn3)c2)C1 (stereo unspecified)	12.2
Cc1ccc2c(c1)c(CNC(=O)C1CC(=O)N(C3CCCC3)C1)nn2C (stereo unspecified)	16.8
COc1ccc(C[C@H]2CNCC[C@@H]2OCC2CC2)cc1	-8.25
CC1CN(C(=O)Nc2cc(C(F)(F)F)c[nH]c2=O)CC(C)(C)O1 (stereo unspecified)	-8.86
Cc1ccc(C(=O)NC2CCN(S(C)(=O)=O)CC2)c(=O)[nH]1	-14.3
CC(c1ccc(F)cc1F)N1CCN(CCN2CCCC2=O)CC1 (stereo unspecified)	-4.44
O=C(c1ccco1)N1CC[C@@H](N2CCOCC2)[C@@H]1Cc1ccncc1	-4.82
COc1cccc(C2CCCN2C(=O)NCCCn2cccn2)c1 (stereo unspecified)	-6.25
COCCN1C(=O)c2ccc(C(=O)NCCc3c[nH]cn3)cc2C1=O	-5.32
CC(C)CCN1CCCC12Cc1ccccc1CNC2=O (stereo unspecified)	-7.7
